Values quoted from earlier work, collected in US20230398240A1, “THERAPEUTIC RADIOLABELLED CONJUGATES AND THEIR USE IN THERAPY” (priority 2020, published 2023).

How the values were obtained:
[1] = test system: quiescent endothelial cells; details: in vitro

Question: What does the source list for `N[C@@H](CCC(=O)N[C@@H](CSCC(=O)Nc1ccc([As](O)O)cc1)C(=O)NCC(=O)O)C(=O)O` [GSAO, 4-(N—(S-glutathionylacetyl)amino)phenylarsenous acid]?
Answer: effect on angiogenesis in vivo (angiogenesis): inhibits angiogenesis in vivo; toxicity to proliferating cells (proliferating cells): toxic to proliferating cells; toxicity to quiescent endothelial cells [1]: nontoxic to quiescent endothelial cells
